Results: patent US5461057A, “Hydro-ethano-indeno-pyridines” (priority 1994, dated 1995)

What was measured:
TBZ-induced ptosis = assay: Effects on tetrabenazine (TBZ)-induced ptosis in mice; type: in vivo, mouse; settings: Mus musculus, po
Summary of the method: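 Mice dosed p.o. with test compound and challenged with tetrabenazine; blockade of TBZ-induced ptosis scored per the cited Nodine and Moyer procedure. Values are ED50 in mg/kg.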

[1] = system: PDGF-BB-stimulated mitogenesis of bovine smooth muscle cells; assay: Smooth muscle cell mitogenesis test; type: cell-based
Protocol: The procedure for the Smooth Muscle Cell Mitogenesis test is given just below. The fibronectin adhesion inhibitor, compound B, was tested for inhibitory effects on PDGF (Platelet Derived Growth Factor) BB-stimulated mitogenesis of bovine smooth muscle cells. Cells were exposed to PDGF with and without compound B in 24-well plates for 16 hours.

[2] = system: B16-F10 murine melanoma metastasis; assay: In vivo experimental metastasis; set-up: species or system mouse (C57/black6); settings: 150 mpk i.p.
Protocol: C57/black6 female mice (6-7 weeks old) were randomized before any treatment into groups of 5 mice per treatment. Compounds of the invention were prepared as a fine suspension in 25% β-cyclodextran and administered i.p. in a volume of 0.2 ml per animal. Two hours after drug (or vehicle) injection, 0.2 ml of DPBS containing 1×10^5 B-16 F10 murine melanoma cells were injected i.v. into the tail vein. After 14 days, animals were sacrificed and lungs were removed. Metastatic lung colonies were counted by visual inspection.
*Pretreatment Time is the time between i.p. drug injection and i.v. tumor

SMILES: COc1ccc(C2=C3CC4CCC(N4)C3c3ccccc32)cc1 (stereo not drawn) [Compound B]
- ED50 (TBZ-induced ptosis): 12 mg/kg
- 3H-Thymidine Incorporation (dpm/1000 ± S.E.M.) ([1]; 0.1 μM + 1 ng/ml PDGF-BB): 406.8 ± 30.2 dpm/1000
- 3H-Thymidine Incorporation (dpm/1000 ± S.E.M.) ([1]; 0.3 μM + 1 ng/ml PDGF-BB): 347.7 ± 9.8 dpm/1000
- 3H-Thymidine Incorporation (dpm/1000 ± S.E.M.) ([1]; 1 μM + 1 ng/ml PDGF-BB): 156.3 ± 7.2 dpm/1000
- 3H-Thymidine Incorporation (dpm/1000 ± S.E.M.) ([1]; 3 μM + 1 ng/ml PDGF-BB): 17.0 ± 1.9 dpm/1000
- cell detachment ([1]; 10 μM): caused cells to detach from the plate
- 3H-Thymidine Incorporation (dpm/1000 ± S.E.M.) ([1]; 10 μM + 1 ng/ml PDGF-BB): 7.3 ± 5.3 dpm/1000
- inhibition at 0.1 µM ([1]; Bos taurus, 0.1 μM + 1 ng/ml PDGF-BB): -2.7%
- inhibition at 0.3 µM ([1]; Bos taurus, 0.3 μM + 1 ng/ml PDGF-BB): 18.5%
- inhibition at 1 µM ([1]; Bos taurus, 1 μM + 1 ng/ml PDGF-BB): 87.1%
- inhibition at 3 µM ([1]; Bos taurus, 3 μM + 1 ng/ml PDGF-BB): 137%
- inhibition at 10 µM ([1]; Bos taurus, 10 μM + 1 ng/ml PDGF-BB): 140%
- IC50 ([1]; Bos taurus, 16 hours, read-out: inhibition of PDGF-stimulated mitogenesis IC50): 520 nM
- inhibition of in vivo metastasis relative to vehicle control ([2]; 2 hours before i.v. injection of melanoma): 73%
- % Inhibition of lung metastasis ([2]; pretreatment time 30 min): 55.7%
- Number of Lung Melanoma Colonies ([2]; pretreatment time 30 min): 35.2 ± 13.9
- % Inhibition of lung metastasis ([2]; pretreatment time 120 min): 72.5%
- Number of Lung Melanoma Colonies ([2]; pretreatment time 120 min): 21.8 ± 2.0
